How the values were obtained:
Assay type in all cases: cell-based
NIHOVCAR3 = assay: Cell viability assay, adherent cell line, 5 day Alamar Blue (Example 8): NIHOVCAR3; details: Homo sapiens, OVCAR-3, 120 h, OVCAR3, Ovarian Cancer Cell
Protocol: (§1) Cell viability assays were performed on certain compounds of the disclosure, according to the following procedure.
(§2) Cell line specific media conditions used:
(§3) The procedure for adherent cell line compound screening was as follows:
(§4) • Cells were seeded in 96-well cell culture treated tissue culture plates: ZR-75-1, NIHOVCAR3, T47D, and LOVO cells 4000 cells/well; and HPAFII 3000 cell/well
(§5) Day 3: Compound Dilution and Dosing
(§6) • 5-fold serial dilution (8 point) of each compound in DMSO 0-25 mM in compound storage plates was prepared (stored at −80° C. if not to be used immediately). • Cells were rinsed with 1% FBS Media (appropriate to cell line as described above) and replaced with 87.5 μL media prior to dosing. HPAFII was screened in normal 10% FBS Media. • DMSO compound dilution series was diluted in 1% FBS media (appropriate to cell line as described above)—2 μL in 248 μL to give an 8× final concentration. • Cells were dosed 12.5 μL/well in triplicate to give final dose curved on cells 0-25 μM. • Media blank 100 μL/well×8 was set up. • All plates were incubated at 37° C.
(§7) Day 8: 5 Day Viability Assay
(§8) • Alamar Blue viability reagent was added (10 μL per well) and incubated for 3 hours at 37° C. prior to fluorescence detection (Ex560 nm/Em590 nm) on a Varioskan Lux multimode plate reader.
(§9) Results from cell viability assays are summarized in Table 23, wherein A represents IC50≤1 μM; B represents 1 μM<IC50≤8 μM; and C represents IC50>8 μM. Blank cells indicate that the compound was not tested in a particular assay.

T47D = assay: Cell viability assay, adherent cell line, 5 day Alamar Blue (Example 8): T47D; details: Homo sapiens, 120 h, Breast Cancer Cell Viability
Protocol: as §1, §2, §3, §4, §5, §6, §7, §8, §9

HPAFII = assay: Cell viability assay, adherent cell line, 5 day Alamar Blue (Example 8): HPAFII; details: Homo sapiens, HPAF-II, 120 h, Pancreatic Cancer Cell
Protocol: as §1, §2, §3, §4, §5, §6, §7, §8, §9

MM.1R = assay: Cell viability assay, suspension cell line, 5 day Alamar Blue (Example 8): MM.1R; details: 120 h, Multiple Myeloma (Steroid Resistant) Cancer Cell
Protocol: as §1, §2
(§10) The procedure for suspension cell line compound screening was as follows:
(§11) Day 1: Cell Seeding and Compound Dosing
as §6, with “• Cells were seeded 2×10^5 in 96-well cell culture treated tissue culture plates: 87.5 μL/well; MM.1 S, MM,1R, NCIH510A. • 5-fold” for “• 5-fold”, “to dosing. • DMSO” for “to dosing. HPAFII was screened in normal 10% FBS Media. • DMSO”
(§12) Day 6: 5 Day Viability Assay
as §8, §9

NCIH510A = assay: Cell viability assay, suspension cell line, 5 day Alamar Blue (Example 8): NCIH510A; details: Homo sapiens, NCI-H510A, 120 h, Small Cell Lung Cancer Cell Line
Protocol: as §1, §2, §10, §11
as §6, with “• Cells were seeded 2×10^5 in 96-well cell culture treated tissue culture plates: 87.5 μL/well; MM.1 S, MM,1R, NCIH510A. • 5-fold” for “• 5-fold”, “to dosing. • DMSO” for “to dosing. HPAFII was screened in normal 10% FBS Media. • DMSO”
as §12, §8, §9

ZR-75-1 = ZR-75-1 compound screening cell viability, Alamar Blue (Example 6); details: Homo sapiens, 96 h, ZR-75-1 cells, Media 1% FBS, read-out: ZR-75-1 Cell Viability, 4 Days: IC50

| Compound | IC50 (NIHOVCAR3) [µM] | IC50 (T47D) [µM] | IC50 (HPAFII) [µM] | IC50 (MM.1R) [µM] | IC50 (NCIH510A) [µM] | IC50 (ZR-75-1) [µM] |
| --- | --- | --- | --- | --- | --- | --- |
| CC(C)Cc1sc(Nc2ncc(-c3cccs3)cc2C(=O)O)nc1C1=CCCC1 [Compound I-8] | ≤ 1 | ≤ 1 | ≤ 1 | ≤ 1 | ≤ 1 |  |
| CC(C)Cc1sc(Nc2ncc(-c3cccs3)cc2C(=O)O)nc1C1CCCCC1 [Compound I-3] | 1 to 8 | 1 to 8 | ≤ 1 | 1 to 8 | 1 to 8 | < 1 |
| CC(C)Cc1sc(Nc2ncc(-c3cccs3)cc2C(=O)O)nc1C(C)(C)C [Compound I-11] | ≤ 1 | ≤ 1 | ≤ 1 | ≤ 1 | ≤ 1 | < 1 |
| CC(C)Cc1sc(Nc2ncc(-c3cccs3)cc2C(=O)O)nc1C1(C)CCCCC1 [Compound I-27] | 1 to 8 | ≤ 1 | 1 to 8 | 1 to 8 | ≤ 1 |  |
| CC(C)Cc1sc(Nc2ncc(-c3cccs3)cc2C(=O)O)nc1C1CCC(F)(F)CC1 [Compound I-29] | 1 to 8 | 1 to 8 | 1 to 8 | 1 to 8 | ≤ 1 |  |

Source: US20240208961A1, “EIF4E INHIBITORS AND USES THEREOF” (PIC Therapeutics, Inc., priority 2022, published 2024)
